Measured values taken from US8986676B2, “MNTF differentiation and growth of stem cells” (Genervon Biopharmaceuticals LLC, priority 2005, dated 2015).
“Also recorded” adds a separate entry of the source. Ends that are not written are not given here.

How the values were obtained:
mouse ES cells [1] = test: MNTF induced differentiation in the presence of Shh inhibitor (GFP fluorescence of embryoid bodies); assay type: cell-based; settings: inhibitor 5 μM, day 5; for effect of inhibitor on MNTF induced differentiation of ES cells: RA + MNTF 33mer at 10 μg/ul; for effect of inhibitor on the GFP fluorescence effect of Shh-Agonist: RA + Shh agonist
Experimental: The ES cells were differentiated as mentioned above and at day 0 they were treated with RA+Shh-Agonist; RA+Shh Agonist+Cyclopamine-KAAD (5 μM); RA+MNTF (33mer at 10 μg/ul); and RA+Cyclopamine-KAAD (5 μM)+MNTF (33mer at 10 μg/ul). The inhibitor was pretreated for an hour before the addition of the other components.
At day 5 of differentiation the embryoid bodies were checked for GFP fluoresence indicating the differentiation of the ES cells into a motor neuron phenotype.
Receptor kinase studies were used to measure the affinity of MNTF for the Insulin Receptor (IR). […] We then tested whether signals through either of these pathways are possible in generating motor neurons. […] Thus, MNTF is still capable of generating post-mitotic mature motor neurons.
FIG. 5 illustrates a comparison of the expression of GFP fluorescence under the control of the motor neuron specific HB9 promoter at day 5 of differentiation in response to control (A), RA (3); RA/Shh (C); cyclopamine-KAAD, RA/Shh (D); RA and MNTF 33mer (E); Cyclopamine-KAAD, RA and MNTF 33mer (F).

[2] = tested on: ES cells derived from an HB9-GFP-transgenic mouse; test: Differentiation of ES cells into motor neurons (eGFP under HB9 promoter in embryoid bodies); assay type: cell-based; settings: for expression of eGFP under the control of the HB9 promoter (green fluorescence of EBs) compared with RA and Shh agonist: EBs treated with RA (1 μM) and peptide; for differentiation of ES cells into motor neurons: in the presence of RA; for concentration at which elevated fluorescence was detectable (as low as) / concentration at which fluorescence appeared to be optimal: with RA; for concentration at which fluorescence appeared to be optimal: in this experiment
Experimental: ES cells were derived from an HB9-GFP-transgenic mouse and fluoresce green upon adoption of a motoneuron phenotype [Wichterle, H. et al. ([…]) Cell 110, 385-397, incorporated herein by reference]. The mouse ES cells were maintained in a proliferative and undifferentiated state in the presence of murine LIF (Chemicon). The ES cells were cultured on a feeder layer of primary mouse embryonic fibroblasts that were mitomycin treated.
Mouse ES cells were separated from the feeder layer of fibroblasts. This was done by trypsinizing and plating the cell mixture on cell culture flasks coated with 0.1% gelatin. The fibroblasts attached specifically on the gelatin leaving a pure population of floating ES cells. The floating ES cells were collected and resuspended in differentiating medium. This stage was called “d−1”. The ES cells formed embryoid bodies (EBs) and 24 hours later (“d0”) were exposed to RA (1 μM)+MNTF or RA (1 μM)+Shh agonist (1 μM). MNTF peptides (all six forms) were tested at a final concentration range of 0.1 μg/ml-150 μg/ml.
The differentiation assay was carried for six days from “d−1” stage.

IR/IGF1R [pYpY1162/1163] = test: Autophosphorylation of Insulin/IGF receptor(s), western blot of embryoid bodies; assay type: cell-based, mouse; settings: for autophosphorylation of IR/IGF-R (pTyr 1162/1163): RA (1 μM) + MNTF 33mer (10 μg/ml), FIG. 3
Experimental: Embryoid bodies (EBs) were exposed to RA (1 μM)+MNTF 33mer (10 μg/ml) or RA (1 μM)+MNTF 33mer (10 μg/ml)+/−HNMPA-(AM)3 (50 nM). Cells were harvested at 0, 15 min, 30 min, 1 h, 2 h and 4 h time points.
The cells were harvested as described previously [Barber, A. J. et al., (2001) J. Biol. Chem. 276, 32814-32821]. Protein concentrations were measured with the Pierce BCA reagent, and all samples were adjusted for equal protein before SDS-polyacrylamide gel electrophoresis.
Cell lysates were immunoblotted with polyclonal antibodies against phosphotyrosines 1162-1163 of IR/IGFR1 following the manufacturer's directions or standard techniques. Protein bands were detected by enhanced chemical fluorescence. Densitometric analysis of enhanced chemical fluorescence immunoblots was performed with ImageQuant (Molecular Dynamics, Sunnyvale, Calif.).

[3] = tested on: ES cell-derived motor neurons; test: Survival of ES cell-derived motor neurons in dissociated cultures; assay type: cell-based, mouse; settings: for maintaining dissociated cultures: dissociated ES-derived motor neuron cultures; for enhancement of survival of stem cell derived motor neurons: percentage survivability on day ten, FIG. 4
Experimental: Mouse embryonic stem (ES) cells were differentiated in the presence of RA and Hg-agonist (Curis, Inc.). On day four, the differentiated embryoid bodies were partially dissociated with 0.05% trypsin or Collagenase and Dispase (1 mg/ml in PBS) and plated on coverslips coated with PLL-Laminin and matrigel.
The dissociated cultures were then treated with GDNF (10 ng/ml), MNTF (all seven forms) at different doses (0.1 μg/ml, 1 μg/ml, 10 μg/ml and 50 μg/ml), and dbcAMP (1 μM), NT3 (10 μg/ml) at day five.
Neurons and their axons were identified by using the fluorescence produced by GFP expressed from the HB9 promoter. Neurite outgrowth can be quantified as described previously [Harper, J. M. et al. (2004) PNAS 101, 7123-7128, incorporated herein by reference] at day six, eight and ten. Percentage survivability was calculated on day ten by counting the total number of cells with existing axons.

mouse ES cells [4] = test: Differentiation of ES cells in the presence of IR or IGF1-R inhibitor (GFP fluorescence of day 5 embryoid bodies); assay type: cell-based; settings: for effect of inhibitor on MNTF induced differentiation (GFP fluorescence): HNMPA(AM)3 15 μM or PPP 1 μM, RA/MNTF33 or RA/MNTF10, FIG. 6
[5] = tested on: motor neuron derived cell lines; settings: compared with MNTF1-F6 33-mer; cited from earlier work
motor neurons = settings: in vivo, compared with MNTF1-F6 33-mer; cited from earlier work
[6] = tested on: anterior horn motor neurons; settings: rat lumbar spinal cord explants; cited from earlier work
wobbler mice = settings: MNTF1-containing gel sections implanted at C7-T3 region; cited from earlier work
surviving motor neurons = settings: axotomized rat peripheral nerves, versus untreated controls; cited from earlier work
spinal cord hemi-section = settings: rats, MNTF1-containing gel sections near nerve graft junctions; cited from earlier work

In the case of “3-keto-N-(aminoethyl-aminocaproyl-dihydrocinnamoyl)cyclopamine [Cyclopamine-KAAD]”, the “effect of inhibitor on MNTF induced differentiation of ES cells” value (mouse ES cells [1]) is reported as “did not block MNTF induced differentiation of ES cells”, the “effect of inhibitor on MNTF induced differentiation of ES cells” value (mouse ES cells [1]; listed as cyclopamine-KAAD) is reported as “did not block the activity of MNTF induced differentiation” and the “effect of inhibitor on the GFP fluorescence effect of Shh-Agonist” value (mouse ES cells [1]) is reported as “blocked the GFP fluoresence effect of Shh-Agonist”. For the same compound, the “effect of inhibitor on the GFP fluorescence effect of Shh-Agonist” value (mouse ES cells [1]; listed as cyclopamine-KAAD) was “blocks the effect of Shh on mouse ES cells”.
In the case of “33mer: 33 amino acid MNTF1-F6 sequence (SEQ ID NO:1), synthesized by solid phase synthesis (LGTFWGDTLNCWMLSAFSRYARCLAEGHDGPTQ)”, the “expression of eGFP under the control of the HB9 promoter (green fluorescence of EBs) compared with RA and Shh agonist” value ([2]; FIG. 2) is reported as “to the same extent or greater than EBs treated with RA and Shh agonist”, the “differentiation of ES cells into motor neurons” value [2] is reported as “effectively substitute for Sonic Hedgehog” and the “differentiation of ES cells into motor neurons” value ([2]; listed as 33-mer) is reported as “induced differentiation of ES cells into motor neurons; also recorded: capable of inducing differentiation of ES cells into differentiated motor neurons”. The concentration at which elevated fluorescence was detectable (as low as) ([2]; FIG. 2) was 0.1 µg/mL, the “concentration at which fluorescence appeared to be optimal” value [2] was “about 10 μg/ml” and the “autophosphorylation of IR/IGF-R (pTyr 1162/1163)” value (IR/IGF1R [pYpY1162/1163]) was “autophosphorylation of IR/IGF-R”. The “autophosphorylation of IR/IGF-R (pTyr 1162/1163)” value (IR/IGF1R [pYpY1162/1163]; listed as MNTF1 33-mer) was “associated with autophosphorylation of the insulin receptor (IR) and/or insulin-like growth factor receptor (IGF-R)” and the maintaining dissociated cultures [3] was “effective at maintaining dissociated cultures up to 10 days”.
For `CC(=O)OCOC(c1ccc2ccccc2c1)P(=O)(OCOC(C)=O)OCOC(C)=O` (stereo not drawn) [HNMPA-(AM)3, Hydroxy-2-naphthalenylmethylphosphonic acid trisacetoxymethyl ester], the “effect of IR inhibitor on autophosphorylation of IR/IGF-R in MNTF 33mer treated cells” value (IR/IGF1R [pYpY1162/1163]; HNMPA-(AM)3 50 nM with RA + MNTF 33mer (10 μg/ml)) was “reduced autophosphorylation within 15 min”, the “effect of inhibitor on MNTF induced differentiation (GFP fluorescence)” value (mouse ES cells [4]) was “blocks the effect of MNTF on mouse ES cells” and the “effect of inhibitor on Shh induced differentiation (GFP fluorescence)” value (mouse ES cells [4]; HNMPA(AM)3 15 μM, FIG. 6) was “did not block the activity of Shh induced differentiation”.
For `COc1cc([C@@H]2c3cc4c(cc3[C@H](O)[C@H]3COC(=O)[C@@H]23)OCO4)cc(OC)c1OC` [picrodophyllin], the “effect of inhibitor on MNTF induced differentiation (GFP fluorescence)” value (mouse ES cells [4]) was “does not effectively block the activity of MNTF induced differentiation”.
For FSRYAR [6mer], the “proliferation of motor neuron derived cell lines” value [5] is listed as “sufficient to stimulate the proliferation of motor neuron derived cell lines”, the “selective reinnervation of muscle targets by motor neurons” value (motor neurons) is listed as “sufficient to direct selective reinnervation of muscle targets” and the “enhancement of survival of stem cell derived motor neurons” value (“enhancement” below) [3] is listed as “sufficient to enhance survival of stem cell derived motor neurons”.
With “FSRYARCLAEG (Synthetic MNTF peptide analog) [11mer]” the “enhancement” value [3] was “sufficient to enhance survival of stem cell derived motor neurons”.
In the case of “MLSAFSRYAR (Synthetic MNTF peptide analog) [10mer]”, the “expression of eGFP under the control of the HB9 promoter (green fluorescence of EBs) compared with RA and Shh agonist” value ([2]; FIG. 2) is reported as “to the same extent or greater than EBs treated with RA and Shh agonist”, the “differentiation of ES cells into motor neurons” value [2] is reported as “effectively substitute for Sonic Hedgehog” and the “differentiation of ES cells into motor neurons” value ([2]; listed as MNTF 10-mer) is reported as “capable of inducing differentiation of ES cells into differentiated motor neurons”. For the same compound, the “concentration at which differentiation is stimulated (as low as)” value ([2]; in vitro, FIG. 2) was 0.01 µg/mL, the “effectiveness at stimulating differentiation of embryonic stem cells into motor neurons compared with MNTF 33mer” value ([2]; in vitro, FIG. 2) was “at least as effective the full-length MNTF 33mer” and the concentration at which elevated fluorescence was detectable (as low as) ([2]; FIG. 2) was 0.1 µg/mL. The “concentration at which fluorescence appeared to be optimal” value [2] was “about 10 μg/ml”, the maintaining dissociated cultures [3] was “effective at maintaining dissociated cultures up to 10 days” and the “enhancement” value [3] was “nearly as effective as the MNTF 33mer”.
With “MLSAFSRYARCLAEGHDGPTQ (CWMLSAFSRYARC; Synthetic MNTF peptide sequence) [21mer]” the “enhancement” value [3] was “sufficient to enhance survival of stem cell derived motor neurons”.
In the case of “MNTF1: naturally occurring and recombinant motoneuronotrophic factor 1 polypeptides; in b137 the word stands for the synthetic 33-mer (LGTFWGDTLNCWMLSAFSRYARCLAEGHDGPTQ)”, the “survival in vitro of anterior horn motor neurons” value [6] is listed as “selectively enhance the survival”, the progression of symptoms (wobbler mice) is listed as “delayed the progression of symptoms in wobbler mice” and the “percentage of surviving motor neurons” value (surviving motor neurons) is listed as “markedly higher percentage of surviving motor neurons than untreated controls”. The “surviving motor neurons and functional recovery” value (spinal cord hemi-section) was “greater numbers of surviving motor neurons, improved recovery of motor and sensory function”.
For WMLSAFS [7mer], the “proliferation of motor neuron derived cell lines” value [5] is listed as “sufficient to stimulate the proliferation of motor neuron derived cell lines” and the “enhancement” value [3] is listed as “sufficient to enhance survival of stem cell derived motor neurons”.
